In patent US7691883B2, “Cinnamoyl compound and use of the same” (Sumitomo Chemical Company, Limited, priority 2003, dated 2010):

What was measured:
[1] = system: mRNA of Type I collagen gene in renal glomerulus; test: Improvement of chronic renal failure: mRNA of Type I collagen gene in renal glomerulus of anti-Thy-1 antibody rats; format: in vivo, rat; parameters: key to mRNA of collagen gene: Type I collagen amount / GAPDH amount; settings: for ability to improve chronic renal failure: anti-Thy-1 antibody rats, 15 mg/kg/day orally for 7 days; for mRNA of collagen gene: male Wistar rats given anti-Thy-1 antibody (IgG) i.v., compound orally 15 mg/kg/day for 7 days, Type I collagen amount/GAPDH amount, renal cortex, control group 5.6, normal group 1.7
Method: IgG was purified from an ascites-lyophilized powder (CEDARLANE, lot No. 05122) containing an anti-rat CD90 (Thy1.1) monoclonal antibody using MAbTrap kit (Amersham Biosciences, catalogue No. 17-1128-01).
6 ml of a binding buffer was added to 3 ml of ascites to sufficiently recover it, and this was passed through a 0.22 μm filter. The resulting solution was applied to a pre-bufferized column, and the column was then washed with 10 ml of a binding buffer. Thereafter, the column was eluted with 5 ml of an elution buffer. From washing, each 1 ml was fractionated, and the protein concentration of each fraction was measured using bovine serum albumin as a standard. A single peak was confirmed from an elution pattern, and an IgG fraction was dialyzed against a physiological saline overnight at 4° C. The protein concentration of the resulting anti-Thy-1 antibody (IgG) was calculated.
The present compounds represented by the compound numbers (1a), (4a), (9a), (14a), (21a), (33a), (19b) or (21d) (hereinafter, referred to as the present compound (1a), (4a), (9a), (14a), (21a), (33a), (19b) or the present compound (21d), respectively) and a corn oil which is a medium were weighed. These were mixed using a mortar and a pestle to prepare a […]. Using four 7-week old male Wistar rats [Nippon Charles River] per group, 60 μg/ml of the anti-Thy-1 antibody (IgG) or a physiological saline was intravenously injected via a tail vein at 5 ml/kg. Immediately after administration of the anti-Thy-1 antibody (IgG) or a physiological saline, the present compound or a corn oil was repeatedly orally administered for 7 days at 5 ml/kg. A dose of the present compound was 15 mg/kg/day.
On the next day of final administration, a rat reared as described in the above (2) was slaughtered by collection of whole blood, and kidneys were isolated. A whole RNA was separated from the cortex of the isolated kidney using RNeasy Mini Kit (QIAGEN, catalogue No. 74106). To 5 μl (50 ng) of the separated whole RNA were added 1 μl of 20 μM oligo dT and 4 μl of RNase-free distilled water. After the mixture was incubated at 65° C. for 5 minutes, it was immediately ice-cooled. To 10 μl of the solution were added 4 μl of 5× buffer, 2.4 μl of MgCl2, 1 μl of 10 mM dNTP, 1 μl of RNasin, 1 μl of Improm II and 0.6 μl of RNase-free distilled water (all available from Promega), and a reverse transcription reaction was performed under the condition of at 25° C. for 5 minutes, at 42° C. for 1 hour, and at 70° C. for 15 minutes.
Into 5 μl of the reverse transcription reaction solution were mixed each 2 μl of each 1.25 pmol/μl of primers represented by SEQ ID NOS: 3 and 4, 1.25 μl of a probe (FAM-ctcgccttca tgcgcctgct agc-TAMRA) for detecting DNA of a Type I collagen gene represented by SEQ ID No:5, each 0.25 μl of Rodent GAPDH primers, 0.25 μl of a Rodent GAPDH probe, 12.5 μl of TaqMan Universal PCR Master Mix (all available from Applied Biosystem) and 1.5 μl of sterilized water in a well of Optical 96-Well Reaction Plate (Applied Biosystem, catalogue No. N801-0560). As a standard, in place of 5 μl of the reverse transcription reaction solution, each 5 μl of 500, 250, 125, 62.5, 31.25, 15.625 ng/μl rat renal cortex cDNA which had been prepared in advance was used. Thereafter, using Gene Amp 7900 (Applied Biosystem), PCR was performed under the condition of at 50° C. for 5 minutes, and 40 cycles in which one cycle is at 95° C. for 15 seconds and at 60° C. for 1 minute. For quantization, a standard straight line was made, the Type I collagen and GAPDH amounts of each sample were calculated, and the transcription amount was calculated according to the following equation: Type I collagen transcription amount=Type I collagen amount/GAPDH amount
For statistical treatment of the resulting result, F-test of a variance ratio was performed between two groups of the anti-Thy-1 antibody and corn oil-administered groups and other each group. […]

[2] = Ability of a test compound to regulate transcription of a Type I collagen gene using the expression level of a reporter gene (COL-Luc luciferase) as an index; format: cell-based; settings: final concentration 1 μM; normal human fetal skin fibroblast transfected with COL-Luc; TGF-β, 40 hours; read-out: inhibition percentage (inhibitory effect on the ability of TGF-β to promote transcription of a Type I collagen gene)
Method: 1×10^8 cells of a normal human fetal skin fibroblast (Clontech, catalogue No. CC-2509) were cultured at 37° C. overnight under 5% CO2 atmosphere. After the cultured cells were washed with a sodium phosphate buffer (hereinafter, referred to as PBS) twice, 3 ml of PBS was added thereto and the cells were scraped away the wall of a vessel using a cell scraper (Nalgen, catalogue No. 179693). The scraped cells were collected by centrifugation (1,500 rpm, 4° C., 15 min), and these were suspended in 20 ml of PBS and centrifuged again. To the resulting precipitates were added 11 ml of Solution 2 and 4.8 μl of pronase of DNA Extraction Kit (Stratagene, catalogue No. 200600). After shaken at 60° C. for 1 hour, the resulting mixture was allowed to stand in ice for 10 minutes. Then, 4 ml of Solution 3 of the kit was added to the mixture. After mixed, the mixture was allowed to stand in ice for 5 minutes and then centrifuged (3,000 rpm, 4° C., 15 min) to recover a supernatant. To the recovered supernatant was added 2 μl of RNase per 1 ml of the supernatant and the mixture was allowed to stand at 37° C. for 15 minutes. To the mixture was added 2-fold volume of ethanol. After mixed, a white thread-like substance (genomic DNA) appeared and the substance was recovered. The recovered genomic DNA washed with 70% ethanol and then air-dried. The air-dried genomic DNA was dissolved in 500 μl of 10 mM Tris-HCl, 1 mM EDTA (pH 8.0) (hereinafter, referred to as TE).
The resulting genomic DNA solution (the amount equivalent to 1 μg of genomic DNA), each 1 μl (10 pmol/μl) of an oligonucleotide consisting of the nucleotide sequence represented by SEQ ID No:1 and an oligonucleotide consisting of the nucleotide sequence represented by SEQ ID No:2, 29 μL of distilled water, 5 μl of the buffer attached to TaKaRa LA Taq (TAKARA SHUZO, catalogue No. RR002A), 5 μL of a Mg^2+ solution, 5 μL of a dNTP mixture and 0.5 μl of TaKaRa LA Taq (TAKARA SHUZO, catalogue No. RR002A) were mixed. After the resulting mixed solution was incubated at 94° C. for 5 minutes, the mixed solution was subjected to 30 cycles, in which one cycle consists of incubation at 94° C. for 1 minute, at 60° C. for 1 minute and then at 72° C. for 1 minute. The mixed solution was electrophoresed on a 2% agarose gel to recover about 0.5 kb of a DNA. The recovered DNA was treated with phenol/chloroform and then precipitated with ethanol to recover the DNA. The resulting DNA was dissolved in ultrapure water. To this solution were added 2.5 μl of NheI and 2.5 μl of HindIII, and then incubated at 37° C. for 3 hours. Then, the solution was electrophoresed on a 2% agarose gel to recover about 3.5 kb of a DNA. The recovered DNA was precipitated with ethanol to recover again the DNA (hereinafter, referred to as the collagen promoter DNA).
On the other hand, the vector pGL3 (Promega, catalogue No. E1751) having the nucleotide sequence encoding firefly luciferase was digested with NheI and HindIII, and then subjected to agarose gel electrophoresis as described above to recover about 5 kb of a DNA. The recovered DNA was precipitated with ethanol to recover the DNA again. To the recovered DNA were added 44 μl of distilled water, 5 μl of Buffer attached to Alkaline Phosphatase (TAKARA SHUZO, catalogue No. 2120A) and 1 μl of Alkaline Phosphatase (TAKARA SHUZO, catalogue No. 2120A). The mixed solution was incubated at 65° C. for 30 minutes. Then, the mixed solution was treated with phenol/chloroform twice, and precipitated with ethanol to recover the DNA (hereinafter referred to as the Luc vector DNA). Then, after about 20 ng of the collagen promoter DNA and about 20 ng of the Luc vector DNA were mixed, the same amount of a DNA Ligation kit Ver2 enzyme solution was added and this was incubated overnight at 16° C. To the mixed solution was added Escherichia coli 5Hdα (TOYOBO, catalogue No. DNA-903), this was allowed to stand in ice for 30 minutes, and then incubated at 42° C. for 45 seconds. […]

SMILES | ability to improve chronic renal failure [1] | mRNA of collagen gene [1] | inhibition at 1 µM [2]
C#CCOc1ccc(C=CC(=O)c2c(O)cc(C)oc2=O)cc1 [(9a), 4-hydroxy-3-[3-(4-propargyloxyphenyl)-1-oxo-2-propenyl]-6-methyl-2H-pyran-2-one] | have the ability to improve chronic renal failure | 3.4 | –
Cc1cc(O)c(C(=O)C=Cc2cccc(C=CC#N)c2)c(=O)o1 [(1a), 4-hydroxy-3-[3-[3-(2-cyanoethenyl)phenyl]-1-oxo-2-propenyl]-6-methyl-2H-pyran-2-one] | have the ability to improve chronic renal failure | 1.9 | ≥ 70%
Cc1cc(O)c(C(=O)C=Cc2cccc(OCC#N)c2)c(=O)o1 [(14a), 4-hydroxy-3-[3-[3-(cyanomethoxy)phenyl]-1-oxo-2-propenyl]-6-methyl-2H-pyran-2-one] | have the ability to improve chronic renal failure | 2.2 | ≥ 70%
COCC(=O)Nc1cccc(C=CC(=O)c2c(O)c3ccccc3oc2=O)c1 [(21d), 4-hydroxy-3-[3-[3-(methoxyacetylamino)phenyl]-1-oxo-2-propenyl]-2H-1-benzopyran-2-one] | have the ability to improve chronic renal failure | 2.2 | ≥ 70%
COC(=O)CNC(=O)c1cccc(C=CC(=O)c2c(N3CCOCC3)cc(C)oc2=O)c1 [(19b), 4-morpholino-3-[3-[3-[[(methoxycarbonylmethyl)amino]carbonyl]phenyl]-1-oxo-2-propenyl]-6-methyl-2H-pyran-2-one] | have the ability to improve chronic renal failure | 2.9 | ≥ 70%
COCC(=O)Nc1cccc(C=CC(=O)c2c(O)cc(C)oc2=O)c1 [(21a), 4-hydroxy-3-[3-[3-(methoxyacetylamino)phenyl]-1-oxo-2-propenyl]-6-methyl-2H-pyran-2-one] | have the ability to improve chronic renal failure | 1.7 | ≥ 70%
C=CCOc1cccc(C=CC(=O)c2c(O)cc(C)oc2=O)c1 [(4a), 4-hydroxy-3-[3-(3-allyloxyphenyl)-1-oxo-2-propenyl]-6-methyl-2H-pyran-2-one] | have the ability to improve chronic renal failure | 3.2 | ≥ 70%
COC(=O)CNC(=O)c1cccc(C=CC(=O)c2c(O)cc(C)oc2=O)c1 [(33a), 4-hydroxy-3-[3-[3-[[(methoxycarbonylmethyl)amino]carbonyl]phenyl]-1-oxo-2-propenyl]-6-methyl-2H-pyran-2-one] | have the ability to improve chronic renal failure | 3.3 | ≥ 70%
